This note sets out measurements from patent US20250064941A1, “SIGLEC LIGANDS, CONJUGATES, AND METHODS OF USE THEREOF” (Osprey Biopharmaceuticals, Inc., priority 2023, published 2025).

Experiment [1] has as its target T1, human Siglec-2/CD22 protein (Homo sapiens, UniProt P20273).
T1 construct: purchased Acro Biosystems SI2-H82E3
T1 sequence (P20273 20-847): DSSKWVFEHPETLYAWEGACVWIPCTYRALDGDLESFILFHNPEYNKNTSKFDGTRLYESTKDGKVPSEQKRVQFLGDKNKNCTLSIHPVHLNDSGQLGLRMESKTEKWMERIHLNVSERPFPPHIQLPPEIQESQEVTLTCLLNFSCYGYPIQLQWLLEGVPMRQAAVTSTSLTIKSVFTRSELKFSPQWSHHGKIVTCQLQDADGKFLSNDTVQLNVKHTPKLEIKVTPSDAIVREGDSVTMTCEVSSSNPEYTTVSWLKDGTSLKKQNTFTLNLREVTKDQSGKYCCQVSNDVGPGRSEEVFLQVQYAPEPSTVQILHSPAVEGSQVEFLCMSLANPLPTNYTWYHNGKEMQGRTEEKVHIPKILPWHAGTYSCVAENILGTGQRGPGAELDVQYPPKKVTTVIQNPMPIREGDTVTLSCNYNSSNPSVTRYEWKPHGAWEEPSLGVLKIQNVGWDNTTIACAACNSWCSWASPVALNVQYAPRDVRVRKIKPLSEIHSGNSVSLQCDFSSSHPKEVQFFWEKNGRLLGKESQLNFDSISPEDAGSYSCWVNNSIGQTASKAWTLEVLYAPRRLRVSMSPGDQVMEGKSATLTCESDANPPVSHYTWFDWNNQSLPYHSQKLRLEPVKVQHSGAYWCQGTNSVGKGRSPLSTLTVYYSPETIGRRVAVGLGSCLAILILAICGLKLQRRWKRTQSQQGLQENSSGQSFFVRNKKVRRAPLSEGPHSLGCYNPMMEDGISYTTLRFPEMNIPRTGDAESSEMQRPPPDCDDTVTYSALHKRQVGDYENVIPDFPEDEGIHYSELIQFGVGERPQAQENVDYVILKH
Nature of the experiment: SPR binding affinity to human CD22. The conditions noted are these: steady-state analysis. The gist of the method:
(§1)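 Native sialic acid residues are removed from the receptor enzymatically (4 hours at 37° C.) prior to streptavidin capture of the biotinylated protein. Ligand compounds then flow over in HEPES-buffered saline, pH 7.5, containing 0.05% Tween-20 and 1% DMSO, and binding is evaluated at steady state.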
(In SPR one partner is held on a chip, and binding of the other changes the refractive index at the surface.)

The target of the next experiment is cynomolgus Siglec-2/CD22 (Macaca fascicularis, UniProt A0A2K5WCZ6). Nature of the experiment: biochemical. The class given is binding. The settings on record: SPR, steady-state analysis; read-out: Affinity cyno CD22. The gist of the method: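 SPR with desialylated (SialoExo, 4 h, 37° C.) cynomolgus CD22 amine-coupled to a CM5 chip. Running buffer 10 mM HEPES, 150 mM NaCl, 0.05% Tween-20, pH 7.5, 1% DMSO, with solvent correction; 120 s dissociation. Affinities from steady-state analysis.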

Experiment [2] addresses T2, mouse Siglec-2-Fc-Avi (CD22) (Mus musculus, UniProt P35329).
T2 construct: made in house
T2 sequence (P35329 22-708 limits assumed): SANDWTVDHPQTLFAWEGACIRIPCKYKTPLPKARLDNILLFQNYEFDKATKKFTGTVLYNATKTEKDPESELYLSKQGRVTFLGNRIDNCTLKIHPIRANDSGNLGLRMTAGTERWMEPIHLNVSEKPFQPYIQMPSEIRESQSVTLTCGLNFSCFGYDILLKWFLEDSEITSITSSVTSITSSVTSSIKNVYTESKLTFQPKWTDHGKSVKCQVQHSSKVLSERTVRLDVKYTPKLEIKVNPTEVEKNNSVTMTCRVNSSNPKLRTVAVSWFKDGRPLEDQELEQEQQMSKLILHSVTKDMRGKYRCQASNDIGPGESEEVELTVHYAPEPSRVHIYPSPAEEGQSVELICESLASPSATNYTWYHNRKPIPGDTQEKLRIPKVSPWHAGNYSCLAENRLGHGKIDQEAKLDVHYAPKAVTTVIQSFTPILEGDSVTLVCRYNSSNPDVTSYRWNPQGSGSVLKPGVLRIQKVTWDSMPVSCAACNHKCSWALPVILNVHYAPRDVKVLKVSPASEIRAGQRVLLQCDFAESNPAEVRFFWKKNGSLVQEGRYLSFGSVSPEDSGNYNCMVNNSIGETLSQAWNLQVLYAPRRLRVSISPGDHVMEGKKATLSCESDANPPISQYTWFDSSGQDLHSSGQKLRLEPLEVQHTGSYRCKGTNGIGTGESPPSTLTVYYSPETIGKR
Nature of the experiment: SPR binding affinity to mouse CD22. The conditions noted are these: steady-state analysis. The gist of the method:
as §1

The structures appear in SMILES notation. pKd: −log10 of the molar value. Bounds are passed on as bounds.

Chain of cynomolgus Siglec-2/CD22 (A0A2K5WCZ6 entry or part of it): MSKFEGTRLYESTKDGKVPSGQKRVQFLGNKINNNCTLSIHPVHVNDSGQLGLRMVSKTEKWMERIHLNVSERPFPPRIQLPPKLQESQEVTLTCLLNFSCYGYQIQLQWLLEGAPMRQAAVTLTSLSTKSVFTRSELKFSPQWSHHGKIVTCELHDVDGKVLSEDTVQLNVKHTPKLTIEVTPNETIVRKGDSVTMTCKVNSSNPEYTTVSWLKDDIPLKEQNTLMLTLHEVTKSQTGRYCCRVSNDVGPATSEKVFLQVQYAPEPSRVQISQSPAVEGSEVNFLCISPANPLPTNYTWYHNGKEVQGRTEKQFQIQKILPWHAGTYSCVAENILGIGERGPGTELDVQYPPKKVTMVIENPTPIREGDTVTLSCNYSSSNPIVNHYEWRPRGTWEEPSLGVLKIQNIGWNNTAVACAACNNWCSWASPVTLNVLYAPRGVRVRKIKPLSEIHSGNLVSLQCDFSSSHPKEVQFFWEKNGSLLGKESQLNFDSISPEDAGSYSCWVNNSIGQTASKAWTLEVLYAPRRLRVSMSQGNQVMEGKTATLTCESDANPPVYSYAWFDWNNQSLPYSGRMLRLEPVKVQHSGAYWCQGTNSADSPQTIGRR

As for `C#CCOCCOCCNc1c(NCCCCCCO[C@]2(C(=O)O)C[C@H](O)[C@@H](NC(=O)CO)[C@H]([C@H](O)[C@H](O)CNC(=O)c3cccc(C(F)F)c3)O2)c(=O)c1=O` [Compound 233, (2R,4S,5R,6R)-6-((1R,2R)-3-(3-(difluoromethyl)benzamido)-1,2-dihydroxypropyl)-2-((6-((3,4-dioxo-2-((2-(2-(prop-2-yn-1-yloxy)ethoxy)ethyl)amino)cyclobut-1-en-1-yl)amino)hexyl)oxy)-4-hydroxy-5-(2-hydroxyacetamido)tetrahydro-2H-pyran-2-carboxylic acid], the pKd (in experiment [1]; at cynomolgus Siglec-2/CD22; in experiment [2]) was 5.00 to 6.00 in each case.

On to `C#CCOCCOCCNc1c(NCCCCCCO[C@]2(C(=O)O)C[C@H](O)[C@@H](NC(=O)CO)[C@H]([C@H](O)[C@H](O)CNC(=O)c3cccc(F)c3)O2)c(=O)c1=O` [Compound 234, (2R,4S,5R,6R)-2-((6-((3,4-dioxo-2-((2-(2-(prop-2-yn-1-yloxy)ethoxy)ethyl)amino)cyclobut-1-en-1-yl)amino)hexyl)oxy)-6-((1R,2R)-3-(3-fluorobenzamido)-1,2-dihydroxypropyl)-4-hydroxy-5-(2-hydroxyacetamido)tetrahydro-2H-pyran-2-carboxylic acid], for which the pKd (in experiment [1]; at cynomolgus Siglec-2/CD22; in experiment [2]) was 5.00 to 6.00 throughout.

As to `CC(=O)NCCOCCOCCOCCOCCC(=O)NCCOCCOCCO[C@]1(C(=O)O)C[C@H](O)[C@@H](NC(=O)CO)[C@H]([C@H](O)[C@H](O)CNC(=O)Cc2ccc(-c3ccccc3)cc2)O1` [Compound 236, (2R,4S,5R,6R)-6-((1R,2R)-3-(2-([1,1′-biphenyl]-4-yl)acetamido)-1,2-dihydroxypropyl)-2-((2,18-dioxo-6,9,12,15,22,25-hexaoxa-3,19-diazaheptacosan-27-yl)oxy)-4-hydroxy-5-(2-hydroxyacetamido) tetrahydro-2H-pyran-2-carboxylic acid], the pKd (in experiment [1]; at cynomolgus Siglec-2/CD22; in experiment [2]) was 5.00 to 6.00 each time.

As for `CC(=O)NCCOCCOCCOCCOCCC(=O)NCCOCCOCCO[C@]1(C(=O)O)C[C@H](O)[C@@H](NC(=O)CO)[C@H]([C@H](O)[C@H](O)CNC(=O)Cc2ccc(Cl)cc2)O1` [Compound 237, (2R,4S,5R,6R)-6-((1R,2R)-3-(2-(4-chlorophenyl)acetamido)-1,2-dihydroxypropyl)-2-((2,18-dioxo-6,9,12,15,22,25-hexaoxa-3,19-diazaheptacosan-27-yl)oxy)-4-hydroxy-5-(2-hydroxyacetamido) tetrahydro-2H-pyran-2-carboxylic acid], the pKd (in experiment [1]; at cynomolgus Siglec-2/CD22; in experiment [2]) was 5.00 to 6.00 throughout.

For `CC(=O)NCCOCCOCCOCCOCCNC(=O)CCOCCO[C@]1(C(=O)O)C[C@H](O)[C@@H](NC(=O)CO)[C@H]([C@H](O)[C@H](O)CNC(=O)Cc2ccc(-c3ccccc3)cc2)O1` [Compound 238, (2R,4S,5R,6R)-6-((1R,2R)-3-(2-([1,1′-biphenyl]-4-yl)acetamido)-1,2-dihydroxypropyl)-2-((2,19-dioxo-6,9,12,15,22-pentaoxa-3,18-diazatetracosan-24-yl)oxy)-4-hydroxy-5-(2-hydroxyacetamido) tetrahydro-2H-pyran-2-carboxylic acid], the pKd (in experiment [1]; at cynomolgus Siglec-2/CD22; in experiment [2]) was 5.00 to 6.00 in each case.

Regarding `CC(=O)NCCOCCOCCOCCOCCNC(=O)CCOCCO[C@]1(C(=O)O)C[C@H](O)[C@@H](NC(=O)CO)[C@H]([C@H](O)[C@H](O)CNC(=O)Cc2ccc(Cl)cc2)O1` [Compound 239, (2R,4S,5R,6R)-6-((1R,2R)-3-(2-(4-chlorophenyl)acetamido)-1,2-dihydroxypropyl)-2-((2,19-dioxo-6,9,12,15,22-pentaoxa-3,18-diazatetracosan-24-yl)oxy)-4-hydroxy-5-(2-hydroxyacetamido) tetrahydro-2H-pyran-2-carboxylic acid], the pKd (in experiment [1]; on cynomolgus Siglec-2/CD22; in experiment [2]) was 5.00 to 6.00 each time.

With `CC(=O)NCCOCCOCCOCCOCCNc1c(NCCCCCCO[C@]2(C(=O)O)C[C@H](O)[C@@H](NC(=O)CO)[C@H]([C@H](O)[C@H](O)CNC(=O)Cc3ccc(Cl)cc3)O2)c(=O)c1=O` [Compound 240, (2R,4S,5R,6R)-6-((1R,2R)-3-(2-(4-chlorophenyl)acetamido)-1,2-dihydroxypropyl)-2-((6-((3,4-dioxo-2-((2-oxo-6,9,12,15-tetraoxa-3-azaheptadecan-17-yl)amino)cyclobut-1-en-1-yl)amino)hexyl)oxy)-4-hydroxy-5-(2-hydroxyacetamido) tetrahydro-2H-pyran-2-carboxylic acid], the pKd (in experiment [1]; on cynomolgus Siglec-2/CD22; in experiment [2]) was greater than 6.00 throughout.

On to `CC(=O)NCCOCCOCCOCCOCc1cn(CCCCCCO[C@]2(C(=O)O)C[C@H](O)[C@@H](NC(=O)CO)[C@H]([C@H](O)[C@H](O)CNC(=O)Cc3ccc(C(F)F)cc3)O2)nn1` [Compound 252, (2R,4S,5R,6R)-6-((1R,2R)-3-(2-(4-(difluoromethyl)phenyl)acetamido)-1,2-dihydroxypropyl)-4-hydroxy-5-(2-hydroxyacetamido)-2-((6-(4-(15-oxo-2,5,8,11-tetraoxa-14-azahexadecyl)-1H-1,2,3-triazol-1-yl)hexyl)oxy) tetrahydro-2H-pyran-2-carboxylic acid], for which the results for the pKd (in experiment [1]; at cynomolgus Siglec-2/CD22; in experiment [2]) were greater than 6.00, greater than 6.00 and 5.00 to 6.00, respectively.

In the case of `CC(=O)NCCOCCOCCOCCOCCn1cc(CCCCCCO[C@]2(C(=O)O)C[C@H](O)[C@@H](NC(=O)CO)[C@H]([C@H](O)[C@H](O)CNC(=O)Cc3ccc(C(F)F)cc3)O2)nn1` [Compound 253, (2R,4S,5R,6R)-6-((1R,2R)-3-(2-(4-(difluoromethyl)phenyl)acetamido)-1,2-dihydroxypropyl)-4-hydroxy-5-(2-hydroxyacetamido)-2-((6-(1-(2-oxo-6,9,12,15-tetraoxa-3-azaheptadecan-17-yl)-1H-1,2,3-triazol-4-yl)hexyl)oxy)tetrahydro-2H-pyran-2-carboxylic acid], the pKd (in experiment [1]; at cynomolgus Siglec-2/CD22; in experiment [2]) was greater than 6.00 in each case.

Consider `CC(=O)NCCOCCOCCOCCOCc1cn(CCCCCCCCO[C@]2(C(=O)O)C[C@H](O)[C@@H](NC(=O)CO)[C@H]([C@H](O)[C@H](O)CNC(=O)Cc3ccc(C(F)F)cc3)O2)nn1` [Compound 259, (2R,4S,5R,6R)-6-((1R,2R)-3-(2-(4-(difluoromethyl)phenyl)acetamido)-1,2-dihydroxypropyl)-4-hydroxy-5-(2-hydroxyacetamido)-2-((8-(4-(15-oxo-2,5,8,11-tetraoxa-14-azahexadecyl)-1H-1,2,3-triazol-1-yl)octyl)oxy)tetrahydro-2H-pyran-2-carboxylic acid], for which the pKd (in experiment [1]; at cynomolgus Siglec-2/CD22; in experiment [2]) was greater than 6.00 in each case.
